Reference: patent publication US20130059385A1, “METHODS OF GENERATING PLURIPOTENT STEM CELLS” (THE SCRIPPS RESEARCH INSTITUTE, priority 2010, published 2013)

What was measured:
[1] = test system: MEF cells; conditions: cited from earlier work
[2] = test system: Neural progenitor cells (NPCs); conditions: NPC reprogramming, Shi et al. 2008; cited from earlier work
[3] = test system: MEFs transduced with Oct4, Sox2 and Klf4; assay: Reprogramming of MEFs transduced by Oct4, Sox2 and Klf4 (AP-positive / Oct4-GFP-positive colonies); assay type: cell-based, mouse
Text: FIG. 1. CHIR99021 promoted the reprogramming of MEFs transduced by Oct4, Sox2 and Klf4. MEFs from 129 strain were transduced with Oct4, Sox2 and Klf4 by retroviruses, and treated the next day with increasing concentrations of CHIR99021 for two week. Three weeks later, AP was detected by staining cells in monolayer (A). […] After 3 weeks of treatment, the GFP positive colonies in each well were counted (B).
Cell Culture and Viral Transduction: MEFs were derived from 12952/SvPasCrlf and ROSA26^+/−/OG2^+/− mice according to the protocol reported on WiCell Research Institute website: “Introduction to human embryonic stem cell culture methods”. ROSA26^+/−/OG2^+/− transgenic mice carry GFP reporter gene under the control of the Oct4 promoter (Oct4-GFP) and the ubiquitously expressed neo/lacZ transgene [Do J T, Scholer H R, Stem Cells, 22:941-949 (2004)]. Animal experiments were performed according to the Animal Protection Guidelines of the Max Planck Institute for Biomolecular Research, Germany. […] MEFs transduced with Oct4/Klf4/Sox2 (1×10^4 cells/well together with 10^5 cells/well CF1 feeders in 6-well plates) were then treated with GSK-3 inhibitor CHIR99021 (Stemgent) for two weeks, and EGFP positive colonies were picked up at the third week after treatment. MEFs transduced with Oct4/Klf4 (1×10^5 cells/well in 6-well plates) were treated with 10 μM CHIR99021 for four weeks, GFP positive colonies were picked up and expanded at the fourth to fifth week after treatment.
Cytochemistry and Immunofluorescence Assay: Alkaline Phosphatase staining was performed according to the manufacturer's protocol using the Alkaline Phosphatase Detection Kit (Millipore). For immunofluorescence assay, cells were fixed in 4% paraformaldehyde for 10 minutes and washed three times with PBS containing 0.1% Triton X-100 (Sigma-Aldrich). The fixed cells were then incubated in blocking buffer, 0.1% Triton X-100 and 10% normal donkey serum (Jackson ImmunoResearch Laboratories Inc) in PBS (Invitrogen/Gibco BRL), for 30 min at room temperature. […]

[4] = test system: Sox2 and Oct4 expression in MEFs; assay: Real-time PCR of pluripotency gene expression in untransduced MEFs after treatment; assay type: cell-based, mouse; conditions: 10 μM CHIR99021, three days
Text: FIG. 2. […] Scale bars, 20μm. […] PCR analysis: […] The primer for viral Klf4 was [NT] and [NT]. The primer for FGF-4 was [NT] and [NT].

Nc1ncn([C@@H]2O[C@H](CO)[C@@H](O)[C@H]2O)c(=O)n1 [5-AZA]
improvement of reprogramming efficiency [1]: up to 4 folds

COc1cc2nc(N3CCCN(C)CC3)nc(NC3CCN(Cc4ccccc4)CC3)c2cc1OC [BIX-01294]
enhancement of reprogramming efficiency [2]: over 8 fold

Cc1c[nH]c(-c2cnc(NCCNc3ccc(C#N)cn3)nc2-c2ccc(Cl)cc2Cl)n1 [CHIR99021]
concentration showing the greatest effects on reprogramming ([3]; Oct4/Sox2/Klf4-transduced ROSA26+/-/OG2+/- MEFs): about 10 μM
reprogramming efficiency (GFP-positive colonies) of transduced MEFs ([3]; about 10 μM CHIR99021, treated two weeks, counted after 3 weeks, without compound 0.03-0.08%): 0.2-0.4%
number of AP-positive mESC-like colonies ([3]; treated two weeks, AP staining at third week after treatment): significantly increased the number of alkaline phosphase (AP)-positive mESC-like colonies in a dose-dependent manner
induction of Sox2 and Oct4 expression in MEFs (real-time PCR) [4]: did not induce the expression of Sox2 and Oct4
